Test results: patent US20120029187A1, “HALOALKYLSULFONANILIDE DERIVATIVE” (Nissan Chemical Industries, Ltd., priority 2009, published 2012)

Legend:
Type in all cases: in vivo
transplanted rice = experiment: Test Example 1: preemergence treatment under submerged conditions, effect on crop; settings: dose 2.52 g/a
Procedure, shortened: (§1)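 Alluvial soil flooded to 4 cm depth; barnyardgrass, bulrush and ducksalad sown and 2.5-leaf rice seedlings transplanted. Same day, water-diluted emulsifiable concentrates applied to the water surface at set doses (g/a). Kept at 25–30 °C in greenhouse; effects scored 0–5 by mortality after three weeks.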

barnyardgrass [1] = experiment: Test Example 1: herbicidal effects in preemergence treatment under submerged conditions; settings: dose 2.52 g/a
Procedure, shortened: as §1

ducksalad [2] = experiment: as above; settings: dose 2.52 g/a
Procedure, shortened: as §1

bulrush [3] = experiment: as above; settings: dose 2.52 g/a
Procedure, shortened: as §1

wild oat [4] = experiment: Test Example 3: herbicidal effects in soil treatment; settings: dose 3.2 g/a
Procedure, shortened: (§2)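 Seeds were sown in sterilized diluvial soil and covered with about 1.5 cm of soil. Compounds, formulated as emulsifiable concentrates and diluted with water, were sprayed evenly over the soil surface at set doses in g/a. Herbicidal effect was scored on a rating scale three weeks later.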

common chickweed [5] = experiment: as above; settings: dose 3.2 g/a
Procedure, shortened: as §2

barnyardgrass [6] = experiment: as above; settings: dose 3.2 g/a
Procedure, shortened: as §2

posumbu knotweed [7] = experiment: as above; settings: dose 3.2 g/a
Procedure, shortened: as §2

velvetleaf [8] = experiment: as above; settings: dose 3.2 g/a
Procedure, shortened: as §2

large crabgrass [9] = experiment: as above; settings: dose 3.2 g/a
Procedure, shortened: as §2

Italian ryegrass [10] = experiment: as above; settings: dose 3.2 g/a
Procedure, shortened: as §2

common lambsquater [11] = experiment: as above; settings: dose 3.2 g/a
Procedure, shortened: as §2

giant foxtail [12] = experiment: as above; settings: dose 3.2 g/a
Procedure, shortened: as §2

water foxtail [13] = experiment: as above; settings: dose 3.2 g/a
Procedure, shortened: as §2

redroot pigweed [14] = experiment: as above; settings: dose 3.2 g/a
Procedure, shortened: as §2

common ragweed [15] = experiment: as above; settings: dose 3.2 g/a
Procedure, shortened: as §2

barnyardgrass [16] = experiment: Test Example 2: herbicidal effects during the vegetation period under submerged conditions; settings: treatment during the vegetation period under submerged conditions; dose 2.52 g/a
Procedure, shortened: (§3)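 Barnyardgrass, bulrush and ducksalad were co-sown in alluvial soil flooded to 4 cm and grown in a greenhouse at 25 to 30° C. At the 1- or 2-leaf stage, water-diluted emulsifiable concentrates went onto the water surface at set doses (g/a). Herbicidal effect was scored three weeks later on a graded scale.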

ducksalad [17] = experiment: as above; settings: treatment during the vegetation period under submerged conditions; dose 2.52 g/a
Procedure, shortened: as §3

bulrush [18] = experiment: as above; settings: treatment during the vegetation period under submerged conditions; dose 2.52 g/a
Procedure, shortened: as §3

wild oat [19] = experiment: Test Example 4: herbicidal effect in foliage treatment; settings: dose 3.2 g/a, three weeks after application
Procedure, shortened: (§4)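 Foliar spray, post-emergence: 14-day-old greenhouse plants (25–30° C, diluvial soil) treated with water-diluted EC at set g/a doses; visual herbicidal score at 3 wk post-application.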

common chickweed [20] = experiment: as above; settings: dose 3.2 g/a, three weeks after application
Procedure, shortened: as §4

barnyardgrass [21] = experiment: as above; settings: dose 3.2 g/a, three weeks after application
Procedure, shortened: as §4

posumbu knotweed [22] = experiment: as above; settings: dose 3.2 g/a, three weeks after application
Procedure, shortened: as §4

velvetleaf [23] = experiment: as above; settings: dose 3.2 g/a, three weeks after application
Procedure, shortened: as §4

beadstraw = experiment: as above; settings: dose 3.2 g/a, three weeks after application
Procedure, shortened: as §4

large crabgrass [24] = experiment: as above; settings: dose 3.2 g/a, three weeks after application
Procedure, shortened: as §4

Italian ryegrass [25] = experiment: as above; settings: dose 3.2 g/a, three weeks after application
Procedure, shortened: as §4

common lambsquater [26] = experiment: as above; settings: dose 3.2 g/a, three weeks after application
Procedure, shortened: as §4

giant foxtail [27] = experiment: as above; settings: dose 3.2 g/a, three weeks after application
Procedure, shortened: as §4

water foxtail [28] = experiment: as above; settings: dose 3.2 g/a, three weeks after application
Procedure, shortened: as §4

redroot pigweed [29] = experiment: as above; settings: dose 3.2 g/a, three weeks after application
Procedure, shortened: as §4

common ragweed [30] = experiment: as above; settings: dose 3.2 g/a, three weeks after application
Procedure, shortened: as §4

Row | SMILES | a: transplanted rice, effect on crop (evaluation scale 0-5) (transplanted rice) | A: barnyardgrass, herbicidal effect (evaluation scale 0-5) (barnyardgrass [1]) | C: ducksalad, herbicidal effect (evaluation scale 0-5) (ducksalad [2]) | B: bulrush, herbicidal effect (evaluation scale 0-5) (bulrush [3]) | F: wild oat, herbicidal effect (evaluation scale 0-5) (wild oat [4]) | N: common chickweed, herbicidal effect (evaluation scale 0-5) (common chickweed [5]) | A: barnyardgrass, herbicidal effect (evaluation scale 0-5) (barnyardgrass [6]) | M: posumbu knotweed, herbicidal effect (evaluation scale 0-5) (posumbu knotweed [7]) | I: velvetleaf, herbicidal effect (evaluation scale 0-5) (velvetleaf [8]) | D: large crabgrass, herbicidal effect (evaluation scale 0-5) (large crabgrass [9]) | H: Italian ryegrass, herbicidal effect (evaluation scale 0-5) (Italian ryegrass [10]) | L: common lambsquater, herbicidal effect (evaluation scale 0-5) (common lambsquater [11]) | E: giant foxtail, herbicidal effect (evaluation scale 0-5) (giant foxtail [12]) | G: water foxtail, herbicidal effect (evaluation scale 0-5) (water foxtail [13]) | K: redroot pigweed, herbicidal effect (evaluation scale 0-5) (redroot pigweed [14]) | J: common ragweed, herbicidal effect (evaluation scale 0-5) (common ragweed [15]) | A: barnyardgrass, herbicidal effect (evaluation scale 0-5) (barnyardgrass [16]) | C: ducksalad, herbicidal effect (evaluation scale 0-5) (ducksalad [17]) | B: bulrush, herbicidal effect (evaluation scale 0-5) (bulrush [18]) | F: wild oat, herbicidal effect (wild oat [19]) | further results
1 | O=C1CC(c2ccccc2)OCN1Cc1ccccc1NS(=O)(=O)C(F)(F)F (stereo not shown) [II-9] | 0 (mortality of less than 5% (almost ineffective)) | 5 (mortality of 90% or above (nearly complete death)) | 5 (mortality of 90% or above (nearly complete death)) | 5 (mortality of 90% or above (nearly complete death)) | 3 (mortality of at least 40% and less than 70%) | 3 (mortality of at least 40% and less than 70%) | 5 (mortality of 90% or above (nearly complete death)) | 5 (mortality of 90% or above (nearly complete death)) | 5 (mortality of 90% or above (nearly complete death)) | 5 (mortality of 90% or above (nearly complete death)) | 4 (mortality of at least 70% and less than 90%) | 0 (mortality of less than 5% (almost ineffective)) | 4 (mortality of at least 70% and less than 90%) | 5 (mortality of 90% or above (nearly complete death)) | 0 (mortality of less than 5% (almost ineffective)) | 0 (mortality of less than 5% (almost ineffective)) | 5 (mortality of 90% or above (nearly complete death)) | 5 (mortality of 90% or above (nearly complete death)) | 5 (mortality of 90% or above (nearly complete death)) | 0 (mortality of less than 5% (almost ineffective)) | N: common chickweed, herbicidal effect (common chickweed [20]): 3 (mortality of at least 40% and less than 70%); A: barnyardgrass, herbicidal effect (barnyardgrass [21]): 5 (mortality of 90% or above (nearly complete death)); M: posumbu knotweed, herbicidal effect (posumbu knotweed [22]): 5 (mortality of 90% or above (nearly complete death)); I: velvetleaf, herbicidal effect (velvetleaf [23]): 1 (mortality of at least 5% and less than 20%); O: beadstraw, herbicidal effect (beadstraw): 4 (mortality of at least 70% and less than 90%); D: large crabgrass, herbicidal effect (large crabgrass [24]): 0 (mortality of less than 5% (almost ineffective)); H: Italian ryegrass, herbicidal effect (Italian ryegrass [25]): 1 (mortality of at least 5% and less than 20%); L: common lambsquater, herbicidal effect (common lambsquater [26]): 0 (mortality of less than 5% (almost ineffective)); E: giant foxtail, herbicidal effect (giant foxtail [27]): 4 (mortality of at least 70% and less than 90%); G: water foxtail, herbicidal effect (water foxtail [28]): 4 (mortality of at least 70% and less than 90%); K: redroot pigweed, herbicidal effect (redroot pigweed [29]): 0 (mortality of less than 5% (almost ineffective)); J: common ragweed, herbicidal effect (common ragweed [30]): 3 (mortality of at least 40% and less than 70%)
2 | CCCOC(=O)N(c1ccccc1CN1COC(c2ccccc2)CC1=O)S(=O)(=O)C(F)(F)F (stereo not shown) [II-11] | 0 (mortality of less than 5% (almost ineffective)) | 5 (mortality of 90% or above (nearly complete death)) | 5 (mortality of 90% or above (nearly complete death)) | 5 (mortality of 90% or above (nearly complete death)) | 0 (mortality of less than 5% (almost ineffective)) | 3 (mortality of at least 40% and less than 70%) | 3 (mortality of at least 40% and less than 70%) | 0 (mortality of less than 5% (almost ineffective)) | 5 (mortality of 90% or above (nearly complete death)) | 3 (mortality of at least 40% and less than 70%) | 3 (mortality of at least 40% and less than 70%) | 0 (mortality of less than 5% (almost ineffective)) | 4 (mortality of at least 70% and less than 90%) | 4 (mortality of at least 70% and less than 90%) | 0 (mortality of less than 5% (almost ineffective)) | 2 (mortality of at least 20% and less than 40%) | 5 (mortality of 90% or above (nearly complete death)) | 5 (mortality of 90% or above (nearly complete death)) | 5 (mortality of 90% or above (nearly complete death)) | 0 (mortality of less than 5% (almost ineffective)) | N: common chickweed, herbicidal effect (common chickweed [20]): 4 (mortality of at least 70% and less than 90%); A: barnyardgrass, herbicidal effect (barnyardgrass [21]): 4 (mortality of at least 70% and less than 90%); M: posumbu knotweed, herbicidal effect (posumbu knotweed [22]): 3 (mortality of at least 40% and less than 70%); I: velvetleaf, herbicidal effect (velvetleaf [23]): 4 (mortality of at least 70% and less than 90%); O: beadstraw, herbicidal effect (beadstraw): 4 (mortality of at least 70% and less than 90%); D: large crabgrass, herbicidal effect (large crabgrass [24]): 2 (mortality of at least 20% and less than 40%); H: Italian ryegrass, herbicidal effect (Italian ryegrass [25]): 1 (mortality of at least 5% and less than 20%); L: common lambsquater, herbicidal effect (common lambsquater [26]): 2 (mortality of at least 20% and less than 40%); E: giant foxtail, herbicidal effect (giant foxtail [27]): 2 (mortality of at least 20% and less than 40%); G: water foxtail, herbicidal effect (water foxtail [28]): 3 (mortality of at least 40% and less than 70%); K: redroot pigweed, herbicidal effect (redroot pigweed [29]): 0 (mortality of less than 5% (almost ineffective)); J: common ragweed, herbicidal effect (common ragweed [30]): 4 (mortality of at least 70% and less than 90%)
